According to patent publication US4440757A, “Pharmaceutical composition comprising derivative of aminobenzoic acid for regulating prostaglandin” (priority 1978, dated 1984):

System: lymphocytes from the spleen of a BALB/C mouse
Test: PGs metabolism of 3H-arachidonic acid taken into lymphocytes
Type: cell-based
Design: key: -: no change was observed; ±: change was slightly observed; +: change was clearly observed
Details: 500 μg/ml, 37° C., 60 min
Description: After adjusting the lymphocytes taken from the spleen of a BALB/C mouse to a concentration of 1×10^7 cells/ml, 2 μCi of ^3 H-arachidonic acid was added and the mixture was incubated at a temperature of 37° C. for 90 min. The incubated lymphocytes were washed three times with the culture medium. After again ajusting the cells to a concentration of 1×10^7 cells per ml, the culture were poured into four siliconized test tubes in an amount of 2 ml/tube. Two test tubes were used as control, and into each of the remaining two test tubes, 500 μg of the present substance, in this Example, Specimen No. 7 was added, and then the four test tubes were incubated at 37° C. for 60 min. After incubation, the test tubes were centrifugated at 0° C. for 5 min. at 1,200 rpm.
The thus obtained pellets of cells were taken into a vial containing 2 ml of the culture medium and after adding 5 ml of petroleum ether, the vial was shaken and the ether layer was removed, the remaining aqueous layer being adjusted to pH of 3.5 by aqueous 0.5 N hydrochloric acid solution.
The aqueous acidic solution was extracted three times with each 5 ml of ether, and the ether extract was dried to solid. The solid material was subjected to esterification by a solution of diazomethane. The esterified reaction mixture was subjected to thin-layer chromatography and was developed with a 90:50:20:100 (by volume) mixed solvent of ethyl acetate:iso-octane:acetic acid:water. The identification of the thus appeared spots on the chromatogram was carried out by using the following authentic specimens of PGD2, PGE2, PGF2-α and 6-keto-PGF1-α. The silicagel layer of the separated chlomatogram was scraped out and dissolved into a liquid for the liquid scintillator to be counted. From the change of the counts the change of PGS was determined.

With `O=C(O)c1ccc(NC2OC[C@@H](O)[C@H](O)[C@H]2O)cc1` (stereo partly drawn) [Specimen No. 7, Sodium p-aminobenzoate-N--D-xyloside] the “Change of 6-keto-PGF1-α” value was “±”, the “Change of PGD2” value was “+” and the “Change of PGE2” value was “+”. The “Change of PGF2-α” value was “±”.
